The numbers were not newly measured in patent US9555113B2, “Compositions with a rheological modifier to reduce dissolution variability” (Durect Corporation, priority 2013, dated 2017), which cites them from elsewhere.

Where two headings read alike, the source gives them in different places.

As to Sucrose Acetate Isobutyrate [SAIB], the viscosity entry runs as follows: (pure SAIB at 80° C.) “approximately 600 cP”; (pure SAIB at ambient temperature (RT)) “approximately 2,000,000 cP”.
